From paper PMC6278537, “Simultaneous Determination and Pharmacokinetics Study of Six Triterpenes in Rat Plasma by UHPLC-MS/MS after Oral Administration of Sanguisorba officinalis L. Extract” (Molecules, 2018)
Where two headings read alike, the source gives them in different places.

Assays:
[1] = Pharmacokinetic study in rats after single oral administration of S. officinalis extract (UHPLC-MS/MS of plasma); format: in vivo, Sprague-Dawley rats; details: for Cmax / AUC(0-inf) / AUC(0-t) / Tmax / half-life: rat plasma, single oral dose of S. officinalis extract 0.015 g/kg, n = 12, mean ± SD; for time of first peak of mean plasma concentration-time curve (double-peak phenomenon) / time of second peak of mean plasma concentration-time curve (double-peak phenomenon): rats, after oral administration of S. officinalis extract, Figure 4
Procedure: The UHPLC-MS/MS method was successfully used in the pharmacokinetic studies of six analytes after single dose administration of S. officinalis extract in rats. Based on the body surface area calculations of people and the animals and equivalent dose conversion calculations, the dosage of the rats was 0.015 g/kg. The half-time (t1/2), maximum plasma concentration (Cmax), time to reach Cmax (Tmax), and area under concentration–time curve (AUC0→t and AUC0→∞) were calculated via non-compartmental analysis (Table 6). The pharmacokinetic parameters of six components were reckoned by means of non-compartmental analysis using DAS 2.0 (Shanghai, China).
The experimental protocol was permitted by the Animal Ethics Committee of Harbin Medical University and conformed to the principles for the Care and Use of Laboratory Animals. Twelve male Sprague-Dawley rats (Weight 200 ± 20 g) were provided by the Laboratory Animal Centre of Harbin Medical University (Harbin, China). Each rat was fasted for 12 h before giving the drug and had free water supply even during the experiment. The S. officinalis extract was dissolved in water. A single dose of the S. officinalis extract (0.015 g/kg) was administrated to the rats. Blood (0.3 mL) was gained from the retinal venous plexus at 0, 0.083, 0.25, 0.5 1.0, 1.5, 2.0, 3.0, 4.0, 6.0, 8.0, 12.0 and 24.0 h after dosing. The plasma was immediately separated by centrifugation at 12000 rpm for 5 min at […].
Ten microliters of IS (1040.0 ng/mL) solution and 100 μL of methanol were added to 100 μL aliquot of plasma sample and vortexed for 30 s. The mixture was extracted with 3 mL ethyl acetate by being vortex-mixed for 1 min. The supernatant was separated and evaporated to dryness by N2 blowing at 40 °C after centrifuging at 3800 rpm for 5 min. The residue was reconstituted with 100 μL of methanol, and then vortex-mixed for 2 min and filtered by a 0.22 μm nylon 66 organic membrane. This was followed by injection of 5 μL aliquot of the solution into the UHPLC-MS/MS system (Agilent Technologies, Santa Clara, CA, USA).
The maximum concentration (Cmax) and the time to attain it (Tmax) were observed directly from the measured data. The elimination rate constant (Ke) was calculated by linear regression of the terminal points in a semi-log plot of the plasma concentration against time. The elimination half-life (t1/2) was calculated using the formula t1/2 = 0.693/Ke. The area under plasma concentration–time curve (AUC0→t) to the last measurable plasma concentration (Ct) was estimated by using the linear trapezoidal rule. The area under the plasma concentration–time curve to time infinity (AUC0→∞) was calculated as: AUC0→∞ = AUC0→t + Ct/Ke. The pharmacokinetic parameters of six analytes were reckoned by non-compartmental analysis using DAS 2.0 (Mathematical Pharmacology Professional Committee of China, Shanghai, China).

[2] = Stability of analytes in rat plasma under various storage conditions; format: in vitro ADME; details: for Stability Post-Preparation: 12 h after sample preparation at 4 °C; for Stability Short-Term / Stability Long-Term / Stability Three Freeze-Thaw: rat plasma; for Stability Short-Term: room temperature 4 h; for Stability Long-Term: storage for 2 weeks; for Stability Three Freeze-Thaw: three freeze–thaw cycles at −20 °C
Procedure: The stability of six analytes in rat plasma was estimated under different storage conditions. […] Post-preparative stability of analytes also implied that there was no obvious degradation when samples were kept at 4 °C for 12 h. In addition, all compounds remained stable for two weeks at […].
The stability of six compounds in rat plasma including freeze and thaw stability (three freeze–thaw cycles at −20 °C), long-term stability (storage for 2 weeks at −80 °C), room temperature stability (storage for 4 h at ambient temperature), and post-preparation stability […] All stability testing QC samples were determined by using the calibration curve of freshly prepared standard samples.

[3] = male, Sprague-Dawley, rat, plasma, po, 0.015 g/kg, read-out: Cmax

Compound | Cmax [1, 3] | AUC(0-inf) ([1]; male, Sprague-Dawley) | AUC(0-t) ([1]; male, Sprague-Dawley) | Tmax ([1]; male, Sprague-Dawley) | half-life ([1]; male, Sprague-Dawley) | Cmax [1] | time of first peak of mean plasma concentration-time curve (double-peak phenomenon) [1] | time of second peak of mean plasma concentration-time curve (double-peak phenomenon) [1] | Stability Post-Preparation ([2]; high QC spiked concentration) | Stability Post-Preparation ([2]; low QC spiked concentration) | Stability Post-Preparation ([2]; medium QC spiked concentration) | Stability Short-Term ([2]; high QC spiked concentration) | Stability Short-Term ([2]; low QC spiked concentration) | Stability Short-Term ([2]; medium QC spiked concentration) | Stability Long-Term ([2]; high QC spiked concentration) | Stability Long-Term ([2]; low QC spiked concentration) | Stability Long-Term ([2]; medium QC spiked concentration) | Stability Three Freeze-Thaw ([2]; high QC spiked concentration) | Stability Three Freeze-Thaw ([2]; low QC spiked concentration) | Stability Three Freeze-Thaw ([2]; medium QC spiked concentration)
C=C1[C@H]2C3=CC[C@@H]4[C@@]5(C)C[C@@H](O)[C@@H](O)C(C)(C)[C@@H]5CC[C@@]4(C)[C@]3(C)CC[C@@]2(C(=O)O[C@@H]2O[C@H](CO)[C@@H](O)[C@H](O)[C@H]2O)CC[C@H]1C [VI, alpinoside] | 243 ± 19.9 ng/mL | 1110 ± 98.1 ng·h/mL | 1030 ± 73.4 ng·h/mL | 1.17 ± 0.26 h | 7.72 ± 1.22 h | 243.2 ± 19.9 ng/mL | 0.5 to 1.5 h | 4 to 8 h | 4.85 % RE | 3.18 % RE | 9.78 % RE | 3.26 % RE | −10.78 % RE | 2.34 % RE | 5.28 % RE | −2.07 % RE | 2.79 % RE | −1.64 % RE | 2.74 % RE | 6.61 % RE
CC1CCC2(C(=O)OC3OC(CO)C(O)C(O)C3O)CCC3(C)C(=CCC4C5(C)CCC(O)C(C)(C)C5CCC43C)C2C1(C)O [II, 3β,19α-dihydroxyurs-12-en-28-oic-acid 28-β-D-glucopyranosyl ester] | 527 ± 64 ng/mL | 2660 ± 601 ng·h/mL | 2300 ± 417 ng·h/mL | 0.83 ± 0.26 h | 8.99 ± 3.04 h | 526.6 ± 64.0 ng/mL | 0.5 to 1.5 h | 4 to 8 h | 3.04 % RE | 5.22 % RE | 4.11 % RE | 2.47 % RE | −5.94 % RE | 4.60 % RE | 2.24 % RE | −3.19 % RE | 2.08 % RE | 2.74 % RE | 2.66 % RE | −2.95 % RE
CC1CCC2(C(=O)O)CCC3(C)C(=CCC4C5(C)C(O)C(O)C(O)C(C)(C)C5CCC43C)C2C1(C)O (stereo not drawn) [V, 1β-hydroxyeuscaphic acid] | 212 ± 11.8 ng/mL | 794 ± 152 ng·h/mL | 733 ± 94.1 ng·h/mL | 0.58 ± 0.2 h | 7.35 ± 3.95 h | 211.5 ± 11.8 ng/mL |  |  | −3.03 % RE | 8.48 % RE | 5.23 % RE | 2.56 % RE | −4.77 % RE | −3.67 % RE | 3.06 % RE | 9.86 % RE | 6.95 % RE | 2.28 % RE | −9.67 % RE | 3.99 % RE
CC1=C2C3=CCC4C5(C)CCC(OC6OCC(O)C(O)C6O)C(C)(C)C5CCC4(C)C3(C)CCC2(C(=O)OC2OC(CO)C(O)C(O)C2O)CCC1C [III, 3β-[(α-L-arabinopyranosyl)oxy]-urs-12,18(19)-dien-28-oic acid β-D-glucopyranosyl ester] | 318 ± 47.6 ng/mL | 1230 ± 193 ng·h/mL | 1140 ± 150 ng·h/mL | 1.33 ± 0.26 h | 6.86 ± 2.91 h | 317.9 ± 47.6 ng/mL | 0.25 h | < 1.5 h | 1.10 % RE | −1.34 % RE | −2.48 % RE | −2.42 % RE | −5.54 % RE | −7.66 % RE | 4.31 % RE | 3.75 % RE | −5.18 % RE | −3.38 % RE | −7.72 % RE | −5.29 % RE
C[C@@H]1CC[C@]2(C(=O)O[C@@H]3O[C@H](CO)[C@@H](O)[C@H](O)[C@H]3O)CC[C@]3(C)C(=CC[C@@H]4[C@@]5(C)CC[C@H](O[C@@H]6OC[C@H](O)[C@H](O)[C@H]6O)C(C)(C)[C@@H]5CC[C@]43C)[C@@H]2[C@]1(C)O [I, ziyuglycoside I] | 745 ± 85.7 ng/mL | 3320 ± 429 ng·h/mL | 2880 ± 303 ng·h/mL | 0.92 ± 0.2 h | 11.6 ± 3.07 h | 744.7 ± 85.7 ng/mL | 0.5 to 1.5 h | 4 to 8 h | −9.95 % RE | −2.07 % RE | 3.53 % RE | 2.44 % RE | 4.27 % RE | 6.27 % RE | 2.03 % RE | 2.43 % RE | −6.57 % RE | 2.51 % RE | 6.07 % RE | 10.19 % RE
C[C@@H]1CC[C@]2(C(=O)O[C@@H]3O[C@H](CO)[C@@H](O)[C@H](O)[C@H]3O)CC[C@]3(C)C(=CC[C@@H]4[C@@]5(C)C[C@@H](O)[C@H](O)C(C)(C)[C@@H]5CC[C@]43C)[C@@H]2[C@]1(C)O [IV, rosamultin] | 315 ± 22.5 ng/mL | 1300 ± 193 ng·h/mL | 1210 ± 120 ng·h/mL | 1.58 ± 0.2 h | 7.32 ± 2.74 h | 314.5 ± 22.5 ng/mL |  |  | 3.95 % RE | 7.45 % RE | 2.23 % RE | 4.55 % RE | 9.63 % RE | 7.81 % RE | −6.75 % RE | 4.88 % RE | 2.71 % RE | 2.07 % RE | 6.80 % RE | 3.84 % RE
